Molecules are shown by their SMILES. Activity calls are given as the source filed them. No cut-off for these calls is given here.

Experimental findings from ChEMBL document CHEMBL4421719, “Modulation of k2p channels” (2016) are described below.

What all share (format): cell-based
The target of assay [1] is T1, Potassium channel subfamily K member 2 (Homo sapiens) (UniProt O95069).
T1 sequence (whole entry): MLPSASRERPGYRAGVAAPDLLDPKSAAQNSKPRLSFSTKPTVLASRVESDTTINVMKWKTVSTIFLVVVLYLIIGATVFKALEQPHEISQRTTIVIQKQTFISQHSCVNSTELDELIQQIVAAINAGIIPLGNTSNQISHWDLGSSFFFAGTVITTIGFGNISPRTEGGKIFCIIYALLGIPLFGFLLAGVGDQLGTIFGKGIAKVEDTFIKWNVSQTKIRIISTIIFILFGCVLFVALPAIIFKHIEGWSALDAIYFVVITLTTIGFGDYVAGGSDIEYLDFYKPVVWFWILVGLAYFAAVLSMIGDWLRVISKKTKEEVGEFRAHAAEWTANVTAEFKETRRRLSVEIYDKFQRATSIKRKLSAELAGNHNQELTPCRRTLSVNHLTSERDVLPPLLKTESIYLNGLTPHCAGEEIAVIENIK
Nature of the assay: Activation of K2P2.1 (unknown origin) expressed in Xenopus oocytes assessed as effect on channel currents at -80 mV holding at 100 uM by two-electrode voltage clamp assay relative to control. For orientation: Two-electrode voltage clamp is typically applied to oocytes expressing channels or transporters.

For assay [2], the target named is T1, Potassium channel subfamily K member 2 (Homo sapiens). Nature of the assay: Reversible activation of K2P2.1 (unknown origin) expressed in HEK293T cells assessed as effect on channel currents at -0 mV holding potential at 5 to 20 uM by two-electrode voltage clamp assay relative to control.
The target is the same in assay [3]. The experiment in a line: Activation of K2P2.1 (unknown origin) expressed in HEK293T cells assessed as effect on channel currents at -40 mV holding potential at 100 uM by two-electrode voltage clamp assay relative to control.
Assay [4] has as its target T2, Potassium channel subfamily K member 4 (Homo sapiens) (UniProt Q9NYG8).
T2 sequence (whole entry): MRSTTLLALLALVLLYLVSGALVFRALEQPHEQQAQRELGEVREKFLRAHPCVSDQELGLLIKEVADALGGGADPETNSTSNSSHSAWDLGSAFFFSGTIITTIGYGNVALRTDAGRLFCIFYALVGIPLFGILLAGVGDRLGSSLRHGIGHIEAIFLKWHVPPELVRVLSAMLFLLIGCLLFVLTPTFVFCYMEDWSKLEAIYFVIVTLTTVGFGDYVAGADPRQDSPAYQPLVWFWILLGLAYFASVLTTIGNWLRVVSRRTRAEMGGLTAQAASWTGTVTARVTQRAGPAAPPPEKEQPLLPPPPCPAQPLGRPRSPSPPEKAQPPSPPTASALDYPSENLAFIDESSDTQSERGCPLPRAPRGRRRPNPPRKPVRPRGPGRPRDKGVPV
Nature of the assay: Activation of K2P4.1 (unknown origin) expressed in Xenopus oocytes assessed as effect on channel currents at -80 mV holding potential at 100 uM by two-electrode voltage clamp assay relative to control.

Assay [5] has as its target Potassium channel subfamily K member 9 (Homo sapiens) (UniProt Q9NPC2). Nature of the assay: Activation of K2P9.1 (unknown origin) expressed in Xenopus oocytes assessed as effect on channel currents at -80 mV holding potential at 100 uM by two-electrode voltage clamp assay relative to control.
The target of assay [6] is T3, Potassium channel subfamily K member 5 (Homo sapiens) (UniProt O95279).
T3 sequence (whole entry): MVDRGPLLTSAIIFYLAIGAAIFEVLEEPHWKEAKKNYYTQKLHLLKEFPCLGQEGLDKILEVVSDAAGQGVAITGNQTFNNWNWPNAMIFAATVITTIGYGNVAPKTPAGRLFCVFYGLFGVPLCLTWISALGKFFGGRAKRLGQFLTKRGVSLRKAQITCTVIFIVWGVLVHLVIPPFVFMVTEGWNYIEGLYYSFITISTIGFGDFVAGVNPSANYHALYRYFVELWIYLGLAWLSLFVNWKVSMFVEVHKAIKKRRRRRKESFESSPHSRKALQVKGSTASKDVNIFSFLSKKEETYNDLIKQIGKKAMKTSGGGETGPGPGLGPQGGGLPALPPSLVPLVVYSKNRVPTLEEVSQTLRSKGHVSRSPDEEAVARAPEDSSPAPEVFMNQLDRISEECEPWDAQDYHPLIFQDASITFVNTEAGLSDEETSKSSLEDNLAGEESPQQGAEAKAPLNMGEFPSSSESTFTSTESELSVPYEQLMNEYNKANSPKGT
Nature of the assay: Activation of K2P5.1 (unknown origin) expressed in Xenopus oocytes assessed as effect on channel currents at -80 mV holding potential at 100 uM by two-electrode voltage clamp assay relative to control.

The target of assay [7] is Potassium channel subfamily K member 3 (Homo sapiens) (UniProt O14649). The experiment in a line: Activation of K2P3.1 (unknown origin) expressed in Xenopus oocytes assessed as effect on channel currents at -80 mV holding potential by two-electrode voltage clamp assay relative to control.
In assay [8] the target is T1, Potassium channel subfamily K member 2 (Homo sapiens). Nature of the assay: Activation of K2P2.1 (unknown origin) expressed in HEK293T cell membranes in inside-out patch configuration assessed as effect on channel currents at 20 uM by two-electrode voltage clamp assay relative to control.
Assay [9] has the same target. The experiment in a line: Activation of K2P2.1 (unknown origin) expressed in whole HEK293T cells in assessed as effect on channel currents by measuring time of half-maximal activation at 20 uM by two-electrode voltage clamp assay relative to control.
Assay [10] shares this target. Nature of the assay: Activation of K2P2.1 (unknown origin) expressed in whole HEK293T cells assessed as effect on channel currents by measuring time of return to baseline following compound washout at 20 uM by two-electrode voltage clamp assay relative to control.
The test system of assay [11] is Potassium channel subfamily K member 2 (Homo sapiens), O95069 [UNDEFINED MUTATION]. Nature of the assay: Activation of K2P2.1 G137I mutant (unknown origin) expressed in Xenopus oocytes assessed as effect on channel currents at 50 uM at -80 mV holding potential by two-electrode voltage clamp assay.
For assay [12] the test system is unchanged. The experiment in a line: Activation of K2P2.1 W275S mutant (unknown origin) expressed in Xenopus oocytes assessed as effect on channel currents at 50 uM at -80 mV holding potential by two-electrode voltage clamp assay.
Assay [13] is described as follows: Activation of K2P2.1 3G mutant (unknown origin) expressed in Xenopus oocytes assessed as effect on channel currents at -80 mV holding potential by two-electrode voltage clamp assay. The settings on record: Homo sapiens.
Assay [14] deals with Potassium voltage-gated channel subfamily KQT member 2 (Homo sapiens) (UniProt O43526). Nature of the assay: Activation of Kv7.2 (unknown origin) expressed in Xenopus oocytes assessed as effect on channel currents at 100 uM at -80 mV holding potential by two-electrode voltage clamp assay relative to control.
Assay [15] has as its target T2, Potassium channel subfamily K member 4 (Homo sapiens). The experiment in a line: Activation of K2P4.1 (unknown origin) expressed in Xenopus oocytes assessed as effect on channel currents at -80 mV holding potential by two-electrode voltage clamp assay relative to control.
In assay [16] the target is Potassium channel subfamily K member 9 (Homo sapiens) (UniProt Q9NPC2). Nature of the assay: Activation of K2P9.1 (unknown origin) expressed in Xenopus oocytes assessed as effect on channel currents at 150 uM at -80 mV holding potential by two-electrode voltage clamp assay relative to control.
In assay [17] the target is T3, Potassium channel subfamily K member 5 (Homo sapiens). The experiment in a line: Activation of K2P5.1 (unknown origin) expressed in Xenopus oocytes assessed as effect on channel currents at -80 mV holding potential by two-electrode voltage clamp assay relative to control.

Sequence of Potassium channel subfamily K member 9 (Homo sapiens) (Q9NPC2 whole entry): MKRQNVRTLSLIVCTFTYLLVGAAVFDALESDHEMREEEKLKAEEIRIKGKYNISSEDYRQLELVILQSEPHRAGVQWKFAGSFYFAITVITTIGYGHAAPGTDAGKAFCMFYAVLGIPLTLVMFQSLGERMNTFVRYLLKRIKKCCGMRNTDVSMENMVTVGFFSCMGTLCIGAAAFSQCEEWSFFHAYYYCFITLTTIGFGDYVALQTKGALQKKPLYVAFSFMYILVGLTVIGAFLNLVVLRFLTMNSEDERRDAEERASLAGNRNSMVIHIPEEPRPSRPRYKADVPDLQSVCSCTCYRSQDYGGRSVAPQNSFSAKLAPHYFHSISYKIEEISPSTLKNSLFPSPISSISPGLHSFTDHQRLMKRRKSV
Sequence of Potassium voltage-gated channel subfamily KQT member 2 (Homo sapiens) (O43526 whole entry): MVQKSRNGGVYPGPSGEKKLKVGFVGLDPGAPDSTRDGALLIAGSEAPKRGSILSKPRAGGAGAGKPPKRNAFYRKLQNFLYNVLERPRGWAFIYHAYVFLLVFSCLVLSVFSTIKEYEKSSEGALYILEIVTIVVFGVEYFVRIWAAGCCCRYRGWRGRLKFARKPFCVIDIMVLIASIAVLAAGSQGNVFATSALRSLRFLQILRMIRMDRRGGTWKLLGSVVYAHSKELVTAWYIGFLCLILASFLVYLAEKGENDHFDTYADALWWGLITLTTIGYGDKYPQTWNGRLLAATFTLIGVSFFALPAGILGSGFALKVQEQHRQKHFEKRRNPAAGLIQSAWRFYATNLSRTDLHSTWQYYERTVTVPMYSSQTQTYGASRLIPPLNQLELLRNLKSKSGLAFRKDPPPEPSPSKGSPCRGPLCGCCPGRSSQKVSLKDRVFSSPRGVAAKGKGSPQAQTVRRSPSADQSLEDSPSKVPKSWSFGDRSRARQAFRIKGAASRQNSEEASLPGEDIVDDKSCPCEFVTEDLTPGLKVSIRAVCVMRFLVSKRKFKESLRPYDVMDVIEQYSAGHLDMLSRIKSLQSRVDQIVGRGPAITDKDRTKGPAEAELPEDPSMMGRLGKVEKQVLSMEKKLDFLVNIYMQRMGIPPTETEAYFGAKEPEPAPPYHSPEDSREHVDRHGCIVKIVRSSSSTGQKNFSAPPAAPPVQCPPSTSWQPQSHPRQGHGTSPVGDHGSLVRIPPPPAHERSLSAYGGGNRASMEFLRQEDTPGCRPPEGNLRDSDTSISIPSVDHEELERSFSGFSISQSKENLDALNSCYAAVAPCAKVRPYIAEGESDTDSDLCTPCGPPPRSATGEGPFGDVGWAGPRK
Sequence of Potassium channel subfamily K member 3 (Homo sapiens) (O14649 whole entry, looked up): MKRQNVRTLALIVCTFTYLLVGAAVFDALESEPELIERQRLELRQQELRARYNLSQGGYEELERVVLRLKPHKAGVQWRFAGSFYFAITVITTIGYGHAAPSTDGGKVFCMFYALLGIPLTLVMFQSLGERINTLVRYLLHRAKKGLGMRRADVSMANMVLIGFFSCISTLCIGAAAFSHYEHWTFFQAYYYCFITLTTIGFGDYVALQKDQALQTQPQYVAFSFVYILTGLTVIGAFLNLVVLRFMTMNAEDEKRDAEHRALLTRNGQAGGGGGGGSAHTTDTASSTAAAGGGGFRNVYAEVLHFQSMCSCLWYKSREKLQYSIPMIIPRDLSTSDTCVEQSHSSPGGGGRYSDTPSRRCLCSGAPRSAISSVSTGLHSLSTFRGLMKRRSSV

Consider `CC1(C)c2cc(Cl)ccc2N(CCc2nnn[nH]2)c2ccc(Cl)cc21`, for which the Emax was found to be 11.1% in [1]; 11.4% in assay [3]; 14.7% in assay [4]; 2% in assay [5]; 1.7% in [6]; 1.1 in assay [7]. Further, the Emax in [15] amounted to 14.7; in assay [16], 2.1; in [17], 1.7. Moreover, the result in assay [2] and in [8] was Active. Also, the T1/2 in assay [9] is 4.1 s; in [10], 3.9 s. Moreover, the outcome in [11], in assay [12] and in assay [14] was inactive. Also, the EC50 in assay [13] was 49.4 µM.

A word on the EC50: it is the concentration giving half of the maximal effect.
